Patent US10336724B2, “D-amino acid oxidase inhibitors and therapeutic uses thereof” (SyneuRx International (Taiwan) Corp., priority 2017, dated 2019)

How the values were obtained:
hDAAO (human DAAO) = hDAAO (human DAAO) (Homo sapiens (Human), UniProt P14920); assay: hDAAO (human DAAO) activity, D-serine substrate, Amplex Red fluorescence; type: biochemical
Description: The hDAAO (human DAAO) activity was measured by using D-serine as a substrate to produce H2O2. The produced H2O2 would be oxidized by peroxidase, and the produced free radicals would further react with Amplex Red reagent to emit fluorescence. The intensity of fluorescence at 590 nm would be measured to represent the activity of hDAAO. All compounds were dissolved in DMSO. Each compound was diluted with DMSO in 3-fold serial dilution to create a 9-point dose response curve. Each sample was added in triplicate, 1 μL/well, into 96-well black plates. Positive control wells were added with 1 μL of DMSO. Then 49 μL of assay buffer (100 mM Tris-HCl, pH 8.5) containing 1.2 ng/mL hDAAO, 900 nM FAD, 0.2 units/mL HRP, and 100 μM Amplex Red was added to each well of the plate using a multichannel pipette. Next, 50 μL of 100 mM D-Serine in assay buffer was added. The reaction plates were then incubated in the dark at room temperature. The fluorescence readout was detected at 0 and 20 minute by Molecular Device Gemini EM fluorescence reader using the following settings: excitation filter 530 nm, and emission filter 590 nm. The percentage of inhibition values for each well was calculated with the following equation: The percentage of inhibition=(fluorescencesample, 20 min−fluorescencesample, 0 min)/(fluorescenceDMSO, 20 min−fluorescenceDMSO, 0 min)×100%
(§1) The nonlinear curve fitting model in GraphPad Prism 5 was used to calculate IC50 value for each compound.

[1] = biological target: pkDAAO (porcine kidney DAAO) (Sus scrofa (Pig), UniProt P00371); assay: pkDAAO (porcine kidney DAAO) activity, D-Proline substrate, OPD OD450; type: biochemical
Chain of pkDAAO (porcine kidney DAAO) (P00371 whole entry): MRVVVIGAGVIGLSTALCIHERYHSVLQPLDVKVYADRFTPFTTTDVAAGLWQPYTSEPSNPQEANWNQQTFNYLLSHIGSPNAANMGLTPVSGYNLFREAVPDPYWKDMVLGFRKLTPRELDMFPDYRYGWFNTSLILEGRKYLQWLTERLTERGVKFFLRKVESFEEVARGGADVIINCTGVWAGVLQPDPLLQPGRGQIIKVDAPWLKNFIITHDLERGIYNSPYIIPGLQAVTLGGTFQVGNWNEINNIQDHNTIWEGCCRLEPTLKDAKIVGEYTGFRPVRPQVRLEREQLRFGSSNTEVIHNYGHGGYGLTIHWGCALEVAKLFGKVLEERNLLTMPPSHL
Description: The pkDAAO (porcine kidney DAAO) activity was measured by using D-Proine as a substrate to produce hydrogen peroxide (H2O2). The produced H2O2 would be oxidized by peroxidase, and the produced free radicals would further react with 1,2-Phenylenediamine (OPD) reagent. […] The OD450 would be measured to represent the activity of pkDAAO. All compounds were dissolved in DMSO. Each compound was diluted with DMSO in 3 or 4-fold serial dilution to create a 9-point dose response curve. Each sample was added in triplicate, 10 μL/well, into 96-well assay microplate. Positive control wells were added with 10 μL of DMSO. The diluted compounds were incubated with pkDAAO in dark for 10 minutes and then reacted with D-Proline. The final reaction mixture was composed of 0.01 U/mL pkDAAO, 0.03% OPD, 25 U/mL HRP and 40 mM D-Proline in PBS. The reaction plates were then incubated in the dark at room temperature. The OD450 absorbance readout was detected at 0 and 20 minute by Molecular Device Spectra Max Plus reader. The percentage of inhibition values for each well were calculated with the following equation: The percentage of inhibition=(OD450sample, 20 min−OD450sample, 0 min)/(OD450DMSO, 20 min−OD450DMSO, 0 min)×100%
as §1

Chain of hDAAO (human DAAO) (P14920 whole entry): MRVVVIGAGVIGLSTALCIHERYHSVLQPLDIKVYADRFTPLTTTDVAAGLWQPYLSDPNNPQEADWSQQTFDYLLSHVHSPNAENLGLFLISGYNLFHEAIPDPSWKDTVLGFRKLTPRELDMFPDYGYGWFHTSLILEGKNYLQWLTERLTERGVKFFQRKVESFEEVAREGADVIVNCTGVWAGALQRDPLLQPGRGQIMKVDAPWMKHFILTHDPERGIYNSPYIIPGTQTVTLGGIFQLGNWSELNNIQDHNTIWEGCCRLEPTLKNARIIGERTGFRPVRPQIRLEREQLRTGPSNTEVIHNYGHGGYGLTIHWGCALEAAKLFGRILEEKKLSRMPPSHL

Structure (SMILES)	IC50 (hDAAO (human DAAO)) [nM]	IC50 [1] [nM]
O=C(Oc1cc(Cc2cccc3ccccc23)n[nH]c1=O)c1cc(CCc2ccccc2Cl)n[nH]1	100 to 500	10 to 100
O=C(Oc1cc(CCc2cccc3ccccc23)n[nH]c1=O)c1cc(CCc2ccc(Cl)cc2)n[nH]1	100 to 500	10 to 100
O=C(Oc1cc(CCc2cccc3ccccc23)n[nH]c1=O)c1cc(CCc2ccccc2)n[nH]1	100 to 500	10 to 100
O=C(Oc1cc(Cc2ccc3ccccc3c2)n[nH]c1=O)c1cc(CCc2ccccc2)n[nH]1	100 to 500	10 to 100
O=C(Oc1coc(CO)cc1=O)c1cc(CCc2ccc(Cl)cc2)c[nH]1 [Compound 5, 6-(hydroxymethyl)-4-oxo-4H-pyran-3-yl 4-(4-chlorophenethyl)-1H-pyrrole-2-carboxylate]	10000 to 100000	10000 to 100000
O=C(Oc1coc(CO)cc1=O)c1cc2occc2[nH]1 [Compound 9, 6-(hydroxymethyl)-4-oxo-4H-pyran-3-yl 4H-furo[3,2-b]pyrrole-5-carboxylate]	1000 to 10000	10000 to 100000
O=C(Oc1coc(CSc2ccc(Cl)cc2)cc1=O)c1cc(CCc2ccc(Cl)cc2)c[nH]1 [Compound 14, 6-(((4-chlorophenyl)thio)methyl)-4-oxo-4H-pyran-3-yl 4-(4-chlorophenethyl)-1H-pyrrole-2-carboxylate]	1000 to 10000	10000 to 100000
O=C(Oc1cc2c(Cl)cccc2[nH]c1=O)c1cc(CCc2ccc(Cl)cc2)c[nH]1 [Compound 18, 5-chloro-2-oxo-1,2-dihydroquinolin-3-yl 4-(4-chlorophenethyl)-1H-pyrrole-2-carboxylate]	100 to 500	1000 to 10000
O=C(Oc1cc2c(Cl)cccc2[nH]c1=O)c1cc(CCc2ccccc2)c[nH]1 [Compound 23, 5-chloro-2-oxo-1,2-dihydroquinolin-3-yl 4-phenethyl-1H-pyrrole-2-carboxylate]	100 to 1000	1000 to 10000
O=C(Oc1cc2c(Cl)cccc2[nH]c1=O)c1cc(CCc2ccccc2)n[nH]1 [Compound 27, 5-chloro-2-oxo-1,2-dihydroquinolin-3-yl 3-phenethyl-1H-pyrazole-5-carboxylate]	100 to 500	100 to 1000
O=C(Oc1cc2c(Cl)cccc2[nH]c1=O)c1cc(CCc2ccc(Cl)cc2)n[nH]1 [Compound 32, 5-chloro-2-oxo-1,2-dihydroquinolin-3-yl 3-(4-chlorophenethyl)-1H-pyrazole-5-carboxylate]	100 to 1000	100 to 500
O=C(Oc1cc(CSc2ccc(Cl)c(Cl)c2)c[nH]c1=O)c1cc(CCc2ccccc2)n[nH]1 [Compound 49, 5-(((3,4-dichlorophenyl)thio)methyl)-2-oxo-1,2-dihydropyridin-3-yl 3-phenethyl-1H-pyrazole-5-carboxylate]	1000 to 10000	100 to 1000
O=C(Oc1cc(CSc2ccc(Cl)c(Cl)c2)c[nH]c1=O)c1cc(CCc2ccccc2)c[nH]1 [Compound 50, 5-(((3,4-dichlorophenyl)thio)methyl)-2-oxo-1,2-dihydropyridin-3-yl 4-phenethyl-1H-pyrrole-2-carboxylate]	1000 to 10000	1000 to 10000
O=C(Oc1cc(CCc2cc(F)cc(F)c2)n[nH]c1=O)c1cc(CCc2ccc(Cl)cc2)c[nH]1 [Compound 56, 6-(3,5-difluorophenethyl)-3-oxo-2,3-dihydropyridazin-4-yl 4-(4-chlorophenethyl)-1H-pyrrole-2-carboxylate]	1000 to 10000	10000 to 100000
O=C(Oc1cc(Cc2cccc3ccccc23)n[nH]c1=O)c1cc(CCc2ccccc2)n[nH]1 [Compound 62, 6-(naphthalen-1-ylmethyl)-3-oxo-2,3-dihydropyridazin-4-yl 3-phenethyl-1H-pyrazole-5-carboxylate]	100 to 1000	10 to 100
O=C(Oc1cc(Cc2cccc3ccccc23)n[nH]c1=O)c1cc(CCc2cccc(Cl)c2)n[nH]1 [Compound 67, 6-(naphthalen-1-ylmethyl)-3-oxo-2,3-dihydropyridazin-4-yl 3-(3-chlorophenethyl)-1H-pyrazole-5-carboxylate]	100 to 500	10 to 100
O=C(Oc1cc(Cc2cccc3ccccc23)n[nH]c1=O)c1cc(CCc2ccc(F)cc2)n[nH]1 [Compound 72, 6-(naphthalen-1-ylmethyl)-3-oxo-2,3-dihydropyridazin-4-yl 3-(4-fluorophenethyl)-1H-pyrazole-5-carboxylate]	100 to 500	10 to 100
O=C(Oc1cc(Cc2cccc3ccccc23)n[nH]c1=O)c1cc(Cc2ccccc2)n[nH]1 [Compound 77, 6-(naphthalen-1-ylmethyl)-3-oxo-2,3-dihydropyridazin-4-yl 3-benzyl-1H-pyrazole-5-carboxylate]	100 to 1000	10 to 100
